In patent publication US4420639A, “Aromatic compounds” (Beecham Group Limited, priority 1973, dated 1983):

Key:
[1] = test system: stomach / gastro-intestinal tract; experiment: Gastro-intestinal irritancy at or near the therapeutic dose (general statement); assay type: in vivo
oestrogenicity = experiment: Oestrogenic effects (general statement); assay type: in vivo; settings: at the therapeutic dose
[2] = test system: Carrageenin Induced Oedema; experiment: Carrageenin Induced Oedema in Rats; assay type: in vivo, rat; settings: 5, 10, 35 and 70 mg/kg p.o.
Text: a. Carrageenin Induced Oedema in Rats.

[3] = test system: Cotton Pellet Induced Granuloma; experiment: Cotton Pellet Induced Granuloma in Rats; assay type: in vivo, rat; settings: 50 mg/kg p.o. dosed from day 0 to 5 days
Method: c. Cotton Pellet Induced Granuloma in Rats. Consistent activity (reducing induced granuloma by more than 30%) has been observed at 50 mg/kg p.o. dosed from day 0 to 5 days.

Adjuvant arthritis = experiment: Adjurant Arthritis in Rats; assay type: in vivo, rat; settings: daily administration of 60 mg/kg p.o.
Method: d. Adjurant Arthritis in Rats.
Adjuvant arthritis is reduced in rats by the daily administration of doses of 60 mg/kg p.o.

[4] = test system: cultured mouse peritoneal macrophages; experiment: Macrophage Plasmongen Activator Release test; assay type: cell-based; settings: 1 mg/ml
[5] = test system: pyresis induced by Shigella endotoxin; experiment: Anti-pyretic Effect in Rabbits; assay type: in vivo, rabbit; settings: doses down to 100 mg/kg p.o.; intravenous Shigella endotoxin
Text: g. Anti-pyretic Effect in Rabbits.

Adrenal/Pitutary Axis = experiment: Interactions with the Adrenal/Pitutary Axis; assay type: in vivo; settings: five days at 140 mg/kg p.o./day; response to ACTH or ether stress
Text: h. Interactions with the Adrenal/Pitutary Axis.

[6] = test system: ovariectomised rats, uterine weight; experiment: Oestrogenic Test in Rats (uterine weight); assay type: in vivo, rat; settings: 200 mg/kg p.o. and 600 mg/kg p.o. for 4 days
Text: i. Oestrogenic Test in Rats.

[7] = test system: uterus / endometrium (Clauberg test); experiment: Gestagenic Activity in Rabbits (Clauberg test); assay type: in vivo, rabbit; settings: 200 mg/kg p.o. for 4 days
Text: k. Gestagenic Activity in Rabbits.

pyloric ligated rat = experiment: Gastric Damage in Pyloric Ligated Rats; assay type: in vivo; settings: up to 200 mg/kg intra-duadenally
Text: l. Gastric Damage in Pyloric Ligated Rats.

[8] = test system: gastric erosions or ulceration; experiment: Ulcerogenic Activity in Rats; assay type: in vivo, rat; settings: 250 mg/kg p.o. or 500 mg/kg p.o.
Text: m. Ulcerogenic Activity in Rats.

COc1ccc2cc(CCC(C)=O)ccc2c1 [4-(6'-methoxy-2'-naphthyl)butan-2-one]
irritation of the stomach / gastric-irritant effects [1]: not causing either oestrogenic effects or pronounced gastric-irritant effects
oestrogenic effects (oestrogenicity): not causing either oestrogenic effects
reduction in induced oedema volume [2]: significant reduction in induced oedema volume
changes in body weight or in the weight of the spleen, thymus, kidney, liver or adrenal glands [3]: not accompanied by marked changes
reduction of induced granuloma [3]: more than 30%
reduction of adjuvant arthritis (Adjuvant arthritis): reduced
inhibition of the release of plasmogen activator [4]: slight inhibition
reduction of pyresis [5]: reduced pyresis
interference with release of corticosteroids from the adrenal gland (Adrenal/Pitutary Axis): does not interfere with release of corticosteroids
increase in uterine weight [6]: did not result in any increase in uterine weight
uterine hypertrophy or progestational changes in the endometrium [7]: did not result in uterine hypertrophy or progestational changes in the endometrium
overt gastric damage (pyloric ligated rat): nor did overt gastric damage result
systemically mediated effect on the volume of gastric secretion (pyloric ligated rat): have not been found to have a systemically mediated effect on the volume of gastric secretion
gastric erosions at longer contact times ([8]; longer contact times than 4 hours): did lead in some cases to some degree of erosions
gastric erosions or ulceration ([8]; starved 18 hours, examined 1 or 4 hours after dosing): did not give rise to gastric erosions or ulceration
